Assay results from US20240108739A1, “OLIGOMERIC COMPOUNDS BINDING SPECIFICALLY TO PROTEOGLYCANS” (PHI PHARMA SA, priority 2020, published 2024).
Positions of bridges follow the written chain, without caps; N, C: chain ends. Non-standard residues stand in square brackets, D forms with d. Residues, ends and D or L forms follow the SMILES beside them. Chains are numbered I, II in the order given. ξ: configuration not given here. *: point of attachment. X2 = O=C(CCCCCN1C(=O)CC(*)C1=O)NNC(=O)CCCCC1SC[C@H]2NC(=O)N[C@@H]12; ξIle = CC[C@H](C)C(N)C(=O)O; Orn = NCCC[C@H](N)C(=O)O

Key:
Format in all cases: cell-based
U937 (lymphoma) cells = assay: Flow cytometry binding to tumor cell lines (Example 5); conditions: FIG. 6
Experimental: (§1) Tumor cell lines in exponential growth phase were cultured in complete culture medium with 10% FBS and grown in 75 cm^2 cell culture flasks. On the day of the experiment, cells were harvested and transferred in V-bottom culture plates, washed with PBS 1× supplemented with BSA 3% and then incubated with the compounds for 30 min at 4° C. in PBS 1× supplemented with BSA 3% and PEG600 2% at various dilutions (serial dilutions).
(§2) After the incubation, cells were washed in PBS 1× supplemented with BSA 3%. For biotinylated compounds, cells are then incubated for 15 min at 4° C. with streptavidin coupled to 680RD fluorochrome.
(§3) After the incubation, cells were washed in PBS 1× supplemented with 3% BSA and then incubated for at least 15 min at 4° C. with DAPI (Thermo Fisher Scientific) in order to exclude dead cells and samples are directly applied to a flow cytometer. Data generated using the flow cytometer was analyzed using Flowjo™10.6.0 Fluorescence geometric mean (via the use of streptavidin-680RD) of samples was standardized by subtracting the fluorescence geometric mean of the negative control (no compound) and the addition of 1. Experimental design is outlined in Table 9.

HL-60 (leukemia) cells = assay: as above; conditions: FIG. 6
Experimental: as §1, §2, §3

[1] = tested on: CHO-pgsA-745 cells (GAG-deficient mutant); assay: Flow cytometry binding of biotinylated compounds to CHO cells (Example 3); conditions: 30 min at 4 °C, streptavidin-680RD fluorescence; FIG. 3B
Experimental: Cell lines in exponential growth phase were cultured in complete culture medium with 10% FBS and grown in 75 cm^2 cell culture flasks. On the day of the experiment, cells were harvested and transferred in V-bottom culture plates, washed with PBS 1× supplemented with BSA 3% and then incubated with (51-hS)2KC-Mal-Biotin, (51-hS)2KS-(51-hS)KC-Mal-Biotin, [(51-hS)2KS]2KK(Biotin) and VAR2-Biotin for 30 min at 4° C. in PBS 1× supplemented with BSA 3% (and eventually PEG600 2%) at various dilutions (serial dilutions).
After the incubation, cells were washed in PBS 1× supplemented with BSA 3%. For visualization, cells were incubated for 15 min at 4° C. with streptavidin coupled to 680RD fluorochrome. After the incubation, cells were washed in PBS 1× supplemented with 3% BSA and then incubated for at least 15 min at 4° C. with 4′,6-diamidino-2-phenylindole (DAPI) (Thermo Fisher Scientific) in order to exclude dead cells. Samples were directly applied to a flow cytometer. Data generated on the flow cytometer was analyzed using Flowjo™ 10.6.0.

## CC[C@H](C)C(NC(=O)[C@H](CCCNC(=N)N)NC(=O)[C@H](NC(=O)[C@H](Cc1ccccc1)NC(=O)[C@H](Cc1ccc(O)cc1)NC(=O)[C@H](CCCNC(=N)N)NC(C)=O)C(C)C)C(=O)N[C@@H](CCCN)C(=O)N[C@@H](Cc1ccc(O)cc1)C(=O)N[C@@H](CCCNC(=N)N)C(=O)N[C@H](Cc1c[nH]cn1)C(=O)N[C@@H](CO)C(=O)N[C@@H](CCCCNC(=O)[C@H](CO)NC(=O)[C@@H](Cc1c[nH]cn1)NC(=O)[C@H](CCCNC(=N)N)NC(=O)[C@H](Cc1ccc(O)cc1)NC(=O)[C@H](CCCN)NC(=O)[C@@H](NC(=O)[C@H](CCCNC(=N)N)NC(=O)[C@H](NC(=O)[C@H](Cc1ccccc1)NC(=O)[C@H](Cc1ccc(O)cc1)NC(=O)[C@H](CCCNC(=N)N)NC(C)=O)C(C)C)[C@@H](C)CC)C(=O)N[C@@H](CSC1CC(=O)N(CCCCCC(=O)NNC(=O)CCCCC2SC[C@H]3NC(=O)N[C@@H]23)C1=O)C(N)=O (stereo partly drawn) [(51-hS)2KC-Mal-Biotin] (I: Ac-RYF[dV]R[ξIle][Orn]YR[dH]SKC(X2)-NH2 / II: Ac-RYF[dV]RI[Orn]YR[dH]S; amide I:12-II:C)
U937 (lymphoma) cells
  reduction of binding on U937 cells as compared with (51-hS)2KS-(51-hS)KC-Mal-Biotin: at least 10 ×
HL-60 (leukemia) cells
  reduction of binding on HL-60 cells as compared with (51-hS)2KS-(51-hS)KC-Mal-Biotin: at least 10 ×
[1]
  reduction of fluorescence on CHO-pgsA-745 as compared with fluorescence on CHO-K1 cells: 4.6 fold
